Patent US9539256B2 (THE BOARD OF REGENTS OF THE UNIVERSITY OF TEXAS SYSTEM, priority 2012, dated 2017)
Each block holds one compound with its values, some of them ahead of it.

Assays:
type I PKA holoenzyme = test: PKA counter screening, type I holoenzyme; format: biochemical; conditions: 25 μM compound
Procedure: (§1) Kinase activity of the type I and II PKA holoenzyme are measured spectrophotometrically in a 96-well plate with a coupled enzyme assay as described previously (Cook et al. (1982) Biochemistry 21: 5794-5799). In this assay, the formation of ADP is coupled to the oxidation of NADH by the pyruvate kinase/lactate dehydrogenase reactions so the reaction rate can be determined by following the oxidation of NADH, reflected by a decrease in absorbance at 340 nm. […] Reactions are pre-equilibrated at room temperature and initiated by adding the Kemptide substrate (final concentration 0.26 mM).

type II PKA holoenzyme = test: PKA counter screening, type II holoenzyme; format: biochemical; conditions: 25 μM compound
Procedure: as §1

EPAC2 [1] = target: T1, EPAC2 (Homo sapiens, UniProt Q8WZA2); test: Rap1 activation assay in HEK293/EPAC2 cells; format: cell-based; conditions: for 007-AM induced Rap1 activation: HEK293/EPAC2 cells, pre-treatment with 10 μM compound
T1 construct: HEK293 cells that ectopically express full-length EPAC2 proteins; expressed in transfected cells; host or cells: HEK293
T1 sequence (Q8WZA2 whole entry, species assumed): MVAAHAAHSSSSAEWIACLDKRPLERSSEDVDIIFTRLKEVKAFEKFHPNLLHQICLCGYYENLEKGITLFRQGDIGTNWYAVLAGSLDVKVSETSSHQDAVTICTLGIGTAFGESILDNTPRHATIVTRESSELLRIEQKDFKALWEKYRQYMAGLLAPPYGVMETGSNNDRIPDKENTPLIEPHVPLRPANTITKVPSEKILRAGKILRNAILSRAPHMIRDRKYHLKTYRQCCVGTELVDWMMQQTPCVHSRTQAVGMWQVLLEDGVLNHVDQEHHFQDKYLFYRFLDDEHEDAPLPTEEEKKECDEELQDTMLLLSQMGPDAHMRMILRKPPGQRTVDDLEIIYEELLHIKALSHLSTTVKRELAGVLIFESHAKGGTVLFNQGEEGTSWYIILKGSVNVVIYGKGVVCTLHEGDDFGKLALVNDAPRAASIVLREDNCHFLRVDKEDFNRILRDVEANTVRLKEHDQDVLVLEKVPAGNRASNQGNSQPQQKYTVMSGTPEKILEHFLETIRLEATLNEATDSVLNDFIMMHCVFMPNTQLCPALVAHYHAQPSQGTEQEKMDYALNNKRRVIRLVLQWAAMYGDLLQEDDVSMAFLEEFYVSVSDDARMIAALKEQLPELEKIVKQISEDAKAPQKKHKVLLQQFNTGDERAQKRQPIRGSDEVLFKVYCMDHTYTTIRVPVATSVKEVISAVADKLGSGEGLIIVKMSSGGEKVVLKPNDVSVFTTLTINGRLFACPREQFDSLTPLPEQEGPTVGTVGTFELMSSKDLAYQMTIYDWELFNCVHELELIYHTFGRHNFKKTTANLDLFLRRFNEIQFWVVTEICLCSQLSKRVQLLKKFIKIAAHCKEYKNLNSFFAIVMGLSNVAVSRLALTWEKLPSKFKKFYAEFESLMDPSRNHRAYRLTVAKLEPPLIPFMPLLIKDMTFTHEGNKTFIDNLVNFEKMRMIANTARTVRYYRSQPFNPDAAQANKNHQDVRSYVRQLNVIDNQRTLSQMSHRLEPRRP
Procedure: (§2) FIGS. 9A-9B. Effects of EPAC2-specific antagonists on 007-AM-mediated cellular activation of Rap1. […] GTP-bound Rap1 (Rap1GTP) obtained by a Ral-GDSRBD-GST pull-down assay and total cellular Rap1 were detected by immunoblotting with Rap1-specific antibody. […] At test was used to determine statistical significance (*P<0.05).
(§3) Cellular activation of Rap1 was determined by pull-down of lysates derived from human vascular smooth muscle cell and HEK293 cells stably expressing EPAC1 or EPAC2 employing Ral-GDS-RBD-GST affinity beads as described earlier (Mei and Cheng (2005) Molecular Biosystems 1: 325-331).

EPAC1 [2] = target: T2, EPAC1 (Homo sapiens, UniProt O95398); test: Rap1 activation assay in HEK293/EPAC1 cells; format: cell-based
T2 sequence (O95398 1-923): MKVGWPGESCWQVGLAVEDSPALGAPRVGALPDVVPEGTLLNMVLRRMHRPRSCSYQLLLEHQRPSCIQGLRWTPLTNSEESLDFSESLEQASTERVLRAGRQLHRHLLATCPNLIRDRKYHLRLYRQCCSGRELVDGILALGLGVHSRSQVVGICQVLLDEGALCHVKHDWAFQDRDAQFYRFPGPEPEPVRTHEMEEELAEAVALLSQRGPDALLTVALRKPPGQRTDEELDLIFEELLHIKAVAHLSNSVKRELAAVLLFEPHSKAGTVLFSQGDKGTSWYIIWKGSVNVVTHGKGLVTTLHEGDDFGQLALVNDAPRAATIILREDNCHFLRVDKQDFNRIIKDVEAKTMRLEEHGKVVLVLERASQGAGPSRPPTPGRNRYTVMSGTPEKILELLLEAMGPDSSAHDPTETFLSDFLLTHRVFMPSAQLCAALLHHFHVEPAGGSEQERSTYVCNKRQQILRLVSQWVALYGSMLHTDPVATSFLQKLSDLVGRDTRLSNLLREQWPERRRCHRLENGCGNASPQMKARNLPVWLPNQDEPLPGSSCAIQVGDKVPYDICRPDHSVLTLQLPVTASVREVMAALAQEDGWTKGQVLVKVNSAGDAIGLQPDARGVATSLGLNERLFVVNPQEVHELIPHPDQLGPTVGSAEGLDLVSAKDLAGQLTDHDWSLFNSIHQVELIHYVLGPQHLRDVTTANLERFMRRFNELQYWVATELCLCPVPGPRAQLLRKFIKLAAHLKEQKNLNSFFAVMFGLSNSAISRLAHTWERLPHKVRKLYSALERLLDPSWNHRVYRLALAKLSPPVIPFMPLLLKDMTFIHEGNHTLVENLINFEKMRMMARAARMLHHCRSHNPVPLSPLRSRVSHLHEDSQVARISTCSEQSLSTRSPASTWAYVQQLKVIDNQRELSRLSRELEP
Procedure: as §2, §3

EPAC1 [3] = target: T2, EPAC1; test: Rap1-GDP exchange (GEF) activity assay, EPAC1
EPAC1 [4] = target: T2, EPAC1; test: Phosphorylation of Akt in HEK293/EPAC1 cells; format: cell-based; conditions: stimulation with 007-AM
Procedure: (§4) FIG. 10. Effect of ESI-09 on EPAC-mediated PKB phosphorylation in HEK293/EPAC1, HEK293/EPAC2, and human vascular smooth muscle (hVSMC) cells. Serum-starved HEK293/EPAC1, HEK293/EPAC2, and hVSMC cells with or without pretreatment of […] ESI-09 were stimulated with 10 μM 007-AM. Cell lysates were subjected to Western blot analysis as described under “Experimental Procedures” using anti-phospho-Ser473-specific (PKB-P473) and anti-phospho-Thr308-specific (PKB-P308) PKB antibodies.
(§5) Cellular proteins from cell lysates treated with various reagents were separated by SDS-PAGE and transferred to polyvinylidene difluoride membrane. The levels of Akt activation were probed by immuno-blotting analyses using anti-phosphate T308 PKB antibodies (1:1000) and anti-phosphate S473 PKB antibodies (1:1000). At least three independent experiments were performed for each Western blot.

EPAC2 [5] = target: T1, EPAC2; test: Phosphorylation of Akt in HEK293/EPAC2 cells; format: cell-based; conditions: stimulation with 007-AM
Procedure: as §4, §5

AsPC-1 and PANC-1 cells = test: Cell adhesion assay on collagen I matrix; format: cell-based; conditions: stimulation with 10 μM 007-AM
Procedure: FIG. 13 ESI-09 inhibits EPAC1-mediated adhesion of PDA cells on collagen I. AsPC-1 and PANC-1 cells were stimulated with vehicle or 10 μM 007-AM after treatment with the indicated concentrations of ESI-09 for 5 minutes. Bars represent mean±s.d.
It has been recently reported that EPAC1 is over-expressed in pancreatic adenocarcinoma (Lorenz et al. (2008) Pancreas 37: 102-103). However, the functional role of EPAC1 elevation in this neoplasm is not clear. The inventors sought to employ ESI-09 to determine the role of EPAC1 signaling in pancreatic cancer. […] In order to determine if the observed impact on cell migration is EPAC1 specific, the effect of suppressing EPAC1 expression on AsPC-1 and PANC-1 migration using RNAi was examined. […] To further determine how ESI-09 inhibits PDA cell migration and invasion, a cell adhesion assay was performed using a collagen I matrix. […] To determine the in vivo anti-metastatic effect of ESI-09, MIA PaCa-2 stably expressing luciferase were orthotopically implanted into the pancreas of athymic nude mice. The mice were randomly divided into two groups and treated with vehicle or ESI-09 (50 mg/kg per day, oral gavage), respectively. The growth and metastasis of the tumors were monitored by weekly bioluminescence imaging using the IVIS bioluminescence imaging system.

EPAC2 [6] = target: T3, EPAC2 (Mus musculus, UniProt Q9EQZ6); test: 8-NBD-cAMP competition binding to EPAC2
T3 sequence (Q9EQZ6 1-1011): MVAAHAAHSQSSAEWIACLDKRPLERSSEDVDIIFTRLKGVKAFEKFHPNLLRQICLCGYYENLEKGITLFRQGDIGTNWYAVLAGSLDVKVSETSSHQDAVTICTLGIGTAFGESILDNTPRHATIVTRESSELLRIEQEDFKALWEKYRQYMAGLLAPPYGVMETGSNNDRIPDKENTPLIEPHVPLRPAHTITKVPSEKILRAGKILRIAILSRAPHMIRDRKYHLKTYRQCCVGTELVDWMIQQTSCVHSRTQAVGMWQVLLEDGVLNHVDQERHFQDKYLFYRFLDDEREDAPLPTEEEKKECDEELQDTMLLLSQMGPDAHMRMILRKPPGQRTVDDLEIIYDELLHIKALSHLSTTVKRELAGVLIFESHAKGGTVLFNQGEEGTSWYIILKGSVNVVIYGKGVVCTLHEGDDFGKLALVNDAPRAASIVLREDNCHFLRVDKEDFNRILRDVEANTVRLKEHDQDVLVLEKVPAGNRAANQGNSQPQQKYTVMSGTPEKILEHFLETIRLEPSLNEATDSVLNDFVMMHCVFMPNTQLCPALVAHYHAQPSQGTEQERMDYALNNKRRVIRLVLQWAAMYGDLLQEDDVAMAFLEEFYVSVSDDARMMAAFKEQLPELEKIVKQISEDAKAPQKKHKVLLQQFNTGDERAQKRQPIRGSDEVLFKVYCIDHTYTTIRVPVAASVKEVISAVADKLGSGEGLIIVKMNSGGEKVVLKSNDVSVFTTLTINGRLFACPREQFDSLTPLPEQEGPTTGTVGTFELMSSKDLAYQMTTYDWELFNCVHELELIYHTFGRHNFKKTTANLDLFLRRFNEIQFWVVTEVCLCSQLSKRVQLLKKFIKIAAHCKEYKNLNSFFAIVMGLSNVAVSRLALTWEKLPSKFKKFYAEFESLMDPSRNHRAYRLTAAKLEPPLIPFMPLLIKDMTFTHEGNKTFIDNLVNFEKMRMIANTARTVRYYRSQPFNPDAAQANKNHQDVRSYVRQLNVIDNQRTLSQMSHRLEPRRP
Procedure: Primary screen is performed in black 96-well or 384-well microplates. As an example, 50 nM EPAC2 solution is prepared in 20 mM Tris buffer, pH 7.5, containing 150 mM NaCl, 1 mM EDTA, and 1 mM […]. […] Sample is dispensed into plate and test compounds added from 96-well mother plates. […] Fluorescence intensity signal from 8-NBD was recorded at room temperature (rt) before and after tested compounds are added using SpectaMaxM2 microplate reader (Molecular Devices, Silicon Valley, Calif., USA) with excitation/emission wavelengths set at 470/540 nm.

cAMP-induced type I PKA holoenzyme activation (type I PKA holoenzyme): did not significantly alter
cAMP-induced type II PKA holoenzyme activation (type II PKA holoenzyme): did not significantly alter
007-AM induced Rap1 activation (EPAC2 [1]): significant reduction
007-AM induced Rap1 activation (EPAC1 [2]): ineffective
suppressing EPAC1 GEF activity (EPAC1 [3]; cAMP-mediated Rap1-GDP exchange): completely ineffective
EPAC1 IC50 (EPAC1 [3]; suppressing EPAC1 GEF activity, 25 μM cAMP): NMA*
SMILES: Cc1ccc(S(=O)(=O)c2c(C)cc(C)cc2C)cc1 [ESI-05]

SMILES: O=S(=O)(NCCNC/C=C/c1ccc(Br)cc1)c1cccc2cnccc12 [Compound H89, reference compound]
cAMP-induced type I PKA holoenzyme activation (type I PKA holoenzyme): blocked the type I or II PKA activities completely
cAMP-induced type II PKA holoenzyme activation (type II PKA holoenzyme): blocked the type I or II PKA activities completely

SMILES: CO[C@@H]1[C@@H]2OP(=O)(OCOC(C)=O)OC[C@H]2O[C@H]1n1c(Sc2ccc(Cl)cc2)nc2c(N)ncnc21 (stereo partly drawn) [Compound 007-AM, 8-(4-Chlorophenylthio)-2′-O-methyladenosine-3′,5′-cyclic monophosphate, acetoxymethyl ester, reference compound]
fraction of GTP-bound cellular Rap1 (EPAC2 [1]; HEK293/EPAC2 cells treated with 007-AM): increase
Akt phosphorylation for both T308 and S473 (EPAC1 [4]): increase
Akt phosphorylation for both T308 and S473 (EPAC2 [5]): increase
cell adhesion (AsPC-1 and PANC-1 cells): increase

Relative Potency (RA) (EPAC2 [6]; RA = IC50, cAMP/IC50, compound): 4.5
IC50 (EPAC2 [6]; competing with 8-NBD-cAMP in binding EPAC2, read-out: Apparent IC50): 8.7 ± 1.1 µM
007-AM induced Rap1 activation (EPAC2 [1]): much less effective
SMILES: Cc1ccc(C)c(CSc2nc(C3CCCCC3)c(C#N)c(=O)[nH]2)c1 [ESI-08]
